{
  "source": "patent US10912760B1",
  "about": "“Method of inhibiting cancer metastasis” (Chung Shan Medical University, priority 2019, dated 2021)",
  "key": {"[1]": {"test_system": "colon cancer cells (DLD-1, SW480 and SW620)", "assay": "Cell migration assay (transwell)", "type": "cell-based, human", "method": "(§1) FIG. 1A: Effect of Camphorataimide B on migration and invasion of colon cancer cells. For migration assay, three colon cancer cells (DLD-1, SW480 and SW620) were pretreated with the indicated concentrations of Camphoratamide B for 24 hours, seeded onto transwell inserts, and then incubated for 12 hours. For invasion assay, the three colon cancer cells were pretreated with the indicated concentrations of Camphorataimide B for 24 hours, seeded onto Matrigel coated transwell inserts, and then incubated for 16 hours. After the treatments, numbers of cell on the lower surface membrane were stained, photographed and counted for quantitation of migrated and invaded cells.\n(§2) FIG. 1B: Quantitation of effect of Camphorataimide B on migration and invasion of colon cancer cells. Quantitative results were presented as means±SD. Three independent experiments were performed for statistical analysis. * and ** represented P<0.01 and P<0.001 as compared to control, respectively.\n(§3) Cells were pretreated with Camphorataimide B for 24 hours, harvested and then seeded on to 24-well cell culture inserts (8 μm pore size, Millipore). […] The stained cells were photographed and quantified form five random fields under microscopic examination. […] Cells invaded into the lower surface of the insert were quantitated as described earlier."}, "[2]": {"test_system": "colon cancer cells (DLD-1, SW480 and SW620)", "assay": "Cell invasion assay (Matrigel coated transwell)", "type": "cell-based, human", "method": "as §1, §2, §3"}, "[3]": {"test_system": "colon cancer cells (DLD-1, SW480 and SW620)", "assay": "Cell adhesion assay", "type": "cell-based, human", "details": "pretreated 24 hours, Matrigel coated plates, 8 hours", "method": "FIG. 1C: Effect of Camphorataimide B on adhesion of colon cancer cells. The three colon cancer cells were pretreated with the indicated concentrations of Camphorataimide B for 24 hours, seeded on a matrix coated monolayer dish, and then incubated for 8 hours. After washing with PBS, the attached cells were photographed and quantitated.\nFIG. 1D: Quantitation of effect of Camphorataimide B on adhesion of colon cancer cells. Quantitative results were presented as means±SD. Three independent experiments were performed for statistical analysis. * and ** represented P<0.01 and P<0.001 as compared to control, respectively.\nCells were incubated with serial concentration of Camphorataimide B in a complete medium for 24 hours, transferred in to 12-well Matrigel coated plates (10^5 cells per well), and incubated at 37° C. for 8 hours. After the incubation, non-adherent cells were removed by PBS washing and the attached cells were photographed and quantitated using a cell counter."}, "[4]": {"test_system": "colon cancer cells (DLD-1, SW480 and SW620)", "assay": "Soft agar colony formation assay", "type": "cell-based, human", "details": "1 week", "method": "FIG. 1E: Effect of Camphorataimide B on colony formation of colon cancer cells. The three colon cancer cells were pretreated with indicated concentration of Camphorataimide B for 24 hours, seeded on soft agar plates, and then incubated for one week. After the treatments, the number of colonies was quantitated. Quantitative results were presented as means±SD. Three independent experiments were performed for statistical analysis. * and ** represented P<0.01 and P<0.001 as compared to control, respectively.\nCells suspended in agarose medium (10% FBS and 0.3 agarose in medium) containing serial concentrations of Camphorataimide Bwere plated onto 6-well plate which was pre-coated with a layer of solidified agarose (10% FBS and 0.6% agarose in medium), and then incubated at 37° C. in a humidified atmosphere containing 5% CO2 for 1 week. At the end of incubation, cell colonies were fixed, stained with crystal violet, and then photographed using Nikon Eclipse TE2000-U microscope equipped with a Nikon Digital Camera DXM1200 and those colonies with size greater than 0.1 mm were counted."}, "[5]": {"test_system": "F-actin in colon cancer cells (DLD-1, SW480 and SW620)", "assay": "Immunofluorescence (phalloidin) staining of F-actin cytoskeleton", "type": "cell-based, human", "details": "confocal microscope, compared to control", "method": "FIG. 1F: Effect of Camphorataimide B on cytoskeleton structure of colon cancer cells. The treated cells were seeded on a matrix-coated dish, and then F-actin (red) was detected by immunofluorescence staining, while the nuclei (blue) were detected by DAPI staining. Fluorescent images were acquired by using confocal microscopy. Scale bars, […].\nAdherent cells were fixed on the glass slides using 4% ice-cold formaldehyde and reacted with blocking buffer and 0.5% Triton X-100 for 1 hour at room temperature. The reacted cells were incubated with primary antibodies overnight at 4° C. The bound primary antibodies were detected using Alexa Fluor-labeled secondary antibody (Jackson ImmunoResearch Laboratories, West Grove, Pa., USA). Alexa Fluor-conjugated phalloidin (Cell Signaling) was used for detection of polymerized F-actin microfilaments. Fluorescence image was acquired by using a laser scanning confocal microscope system (Zeiss 510 meta, Zeiss, Oberkochen, Germany)."}, "DLD-1 cells": {"test_system": "DLD-1 cells", "assay": "Ex vivo xenograft mice model: pretreated DLD-1 cells injected into spleen and peritoneal site", "type": "in vivo, Balb/c nude mice", "method": "Luciferase expressing DLD-1 cells were pretreated with or without 30 μM Camphorataimide B for 24 hours, and then injected into the abdomen and spleen of Balb/c nude mice (five mice for each group), 35 days after implantation, the representative ex vivo images for liver and abdominal metastasis burden in xenografted animals were monitored using bioluminescent imaging (BLI).\nFIG. 2B: Quantitation of results of FIG. 2A. Luciferase expressing DLD-1 cells were pretreated with or without 30 μM Camphorataimide B for 24 hours, and then injected into the abdomen and spleen of Balb/c nude mice. After 35 days implantation, the mice were photographed and tumor metastatic capability was analyzed. * and ** represented P<0.01 and P<0.001 as compared to untreated group, respectively.\nFIG. 2C: Camphorataimide B suppressed hepatic and abdominal metastasis of DLD-1 cells in ex vivo xenograft mice model. DLD-1 cells were pretreated with or without 30 μM Camphorataimide B for 24 hours, and then spleeny and intraperitoneally injected into Balb/c mice, respectively. After 35 days, the mice were sacrificed and the tissues were obtained and photographed.\nFIG. 2D: Quantitation of results of FIG. 2C. DLD-1 cells were pretreated with or without 30 μM Camphorataimide B for 24 hours, and then spleeny and intraperitoneally injected into Balb/c mice, respectively. After 35 days, the mice were sacrificed and photographed. Total weight of tumor foci from the metastatic tissues were presented and quantitated. *, P<0.01 and P<0.001 between the indicated groups.\nFIG. 2E: Camphorataimide B suppressed metastasis in ex vivo xenograft mice model. […]\n(§4) Male Balb/c nude mice aged four weeks were purchased from National Laboratory Animal Center of Taiwan (Taipei City, Taiwan) and maintained under supervision of the Institutional Animal Care and Use Committee at Chung Shan Medical University. […] The liver metastasis burden was monitored weekly by bioluminescence imaging (BLI). […]"}, "[6]": {"test_system": "Luciferase expressing DLD-1 cells", "assay": "In vivo xenograft mice model: oral treatment after Luc-DLD-1 injection", "set-up": "species or system Balb/c nude mice", "method": "Luciferase expressing DLD-1 cells were suspended in phosphate buffered saline and injected into the spleen and peritoneal site of 5-week-old male Balb/c nude mice, respectively. After one week, the mice were orally administrated with 10 or 20 mg/kg Camphorataimide B or saline vehicle for one month (five mice for each group). IVIS luciferase in vivo images of liver and abdominal metastasis burden were monitored using bioluminescent imaging (BLI). Data represented mean±SD. * and ** represented P<0.01 and P<0.001 between the indicated groups, respectively.\nFIG. 2G: Camphorataimide B suppressed hepatic and abdominal metastasis of DLD-1 cells in in vivo xenograft mice model. Luciferase expressing DLD-1 cells were suspended in phosphate buffered saline and injected into the spleen and peritoneal site of Balb/c nude mice, respectively. After one week, the mice were orally administrated with 10 or 20 mg/kg Camphorataimide B or saline vehicle (five mice for each group). After one month, the mice were sacrificed and the tissues were obtained and photographed.\nFIG. 2H: Quantitation of results of FIG. 2G. Luciferase expressing DLD-1 cells were suspended in phosphate buffered saline and injected into the spleen and peritoneal site of Balb/c nude mice, respectively. After one week, the mice were orally administrated with 10 or 20 mg/kg Camphorataimide B or saline vehicle (five mice for each group). After 35 days, the mice were sacrificed and photographed. Total weight of tumor foci from the metastatic tissues were presented and quantitated. * and ** represented P<0.01 and P<0.001 between the indicated groups, respectively.\nas §4"}, "breast cancer cells": {"test_system": "breast cancer cells", "details": "reported; cited from earlier work"}, "[7]": {"details": "20 and 30 μM, P<0.01 as compared to control"}},
  "data": [
    {"molecule": "CC(C)=CCOc1ccc(C2=C(CC(C)C)C(=O)NC2=O)cc1", "note": "[Camphorataimide B]", "values": [
      {"measurement": "inhibition of migration", "setting": "[1]; [7]", "result": "significant"},
      {"measurement": "migration of colon cancer cells", "setting": "[1]; pretreated 24 hours, indicated concentrations, transwell 12 hours", "result": "dose-dependently inhibited"},
      {"measurement": "inhibition of invasiveness", "setting": "[2]; [7]", "result": "significant"},
      {"measurement": "invasiveness of colon cancer cells", "setting": "[2]; pretreated 24 hours, indicated concentrations, Matrigel transwell 16 hours", "result": "dose-dependently inhibited"},
      {"measurement": "adherent cell numbers", "setting": "[3]", "result": "significantly reduced"},
      {"measurement": "colony numbers", "setting": "[4]", "result": "significantly reduced"},
      {"measurement": "regular architecture and expression level of F-actin", "setting": "[5]", "result": "disrupted and decreased"},
      {"measurement": "attachment to colon tissue, number and size of tumors", "setting": "DLD-1 cells; DLD-1 cells pretreated with 30 μM for 24 hours, after 35 days", "result": "rarely attached to colon tissue and formed fewer number and smaller size of tumors"},
      {"measurement": "hepatic and abdominal metastatic lesion (hematoxylin and eosin staining)", "setting": "DLD-1 cells; DLD-1 cells pretreated with 30 μM for 24 hours, day 35, compared to untreated cells", "result": "significantly diminished"},
      {"measurement": "liver and abdominal metastasis burden (bioluminescent imaging)", "setting": "DLD-1 cells; Luc-DLD-1 cells pretreated with 30 μM for 24 hours, 35 days after implantation", "result": "suppressed liver and abdominal metastasis"},
      {"measurement": "tumor size by bioluminescent imaging", "setting": "[6]; oral 10 and 20 mg/kg every three days for 1 month", "result": "smaller tumors than tumor group"},
      {"measurement": "tumor growth and metastatic ability", "setting": "[6]; oral 10 and 20 mg/kg every three days for 1 month, versus untreated tumors", "result": "grew slowly and less metastatic ability than untreated tumors"},
      {"measurement": "increased gross weight of tumor", "setting": "[6]; oral 10 and 20 mg/kg every three days, after 35 days", "result": "notably inhibited"},
      {"measurement": "tumor growth in breast cancer cells", "setting": "breast cancer cells", "result": "can inhibit tumor growth"}
    ]}
  ]
}
